Here are results for 49 molecules from ChEMBL document CHEMBL1146304, “Alpha-methyltryptamine sulfonamide derivatives as novel glucocorticoid receptor ligands” (Bioorg Med Chem Lett, 2007).

One assay addresses T1, Glucocorticoid receptor (Homo sapiens, UniProt P04150).
T1 sequence (P04150 whole entry): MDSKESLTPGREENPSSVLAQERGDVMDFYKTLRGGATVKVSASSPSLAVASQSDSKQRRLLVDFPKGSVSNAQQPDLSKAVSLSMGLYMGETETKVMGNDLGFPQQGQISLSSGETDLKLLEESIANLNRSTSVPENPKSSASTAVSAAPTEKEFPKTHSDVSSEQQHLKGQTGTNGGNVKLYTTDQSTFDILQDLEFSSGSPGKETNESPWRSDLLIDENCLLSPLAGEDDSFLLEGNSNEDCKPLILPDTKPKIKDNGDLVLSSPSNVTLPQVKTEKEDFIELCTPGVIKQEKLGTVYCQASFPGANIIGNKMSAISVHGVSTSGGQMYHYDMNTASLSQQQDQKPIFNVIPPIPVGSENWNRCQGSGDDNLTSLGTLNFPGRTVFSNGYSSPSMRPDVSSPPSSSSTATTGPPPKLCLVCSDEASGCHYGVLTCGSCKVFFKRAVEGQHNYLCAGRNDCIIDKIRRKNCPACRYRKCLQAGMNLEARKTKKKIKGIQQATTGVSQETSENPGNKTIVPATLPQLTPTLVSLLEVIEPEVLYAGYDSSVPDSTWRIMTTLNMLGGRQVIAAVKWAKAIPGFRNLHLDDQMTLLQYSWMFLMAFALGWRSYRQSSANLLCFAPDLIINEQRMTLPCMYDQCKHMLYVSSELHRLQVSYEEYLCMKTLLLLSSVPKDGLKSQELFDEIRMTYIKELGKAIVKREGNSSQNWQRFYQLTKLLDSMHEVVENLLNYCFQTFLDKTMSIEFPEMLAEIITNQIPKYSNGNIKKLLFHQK

Assay [1] deals with T2, Mineralocorticoid receptor (Homo sapiens, UniProt P08235).
T2 sequence (P08235 whole entry): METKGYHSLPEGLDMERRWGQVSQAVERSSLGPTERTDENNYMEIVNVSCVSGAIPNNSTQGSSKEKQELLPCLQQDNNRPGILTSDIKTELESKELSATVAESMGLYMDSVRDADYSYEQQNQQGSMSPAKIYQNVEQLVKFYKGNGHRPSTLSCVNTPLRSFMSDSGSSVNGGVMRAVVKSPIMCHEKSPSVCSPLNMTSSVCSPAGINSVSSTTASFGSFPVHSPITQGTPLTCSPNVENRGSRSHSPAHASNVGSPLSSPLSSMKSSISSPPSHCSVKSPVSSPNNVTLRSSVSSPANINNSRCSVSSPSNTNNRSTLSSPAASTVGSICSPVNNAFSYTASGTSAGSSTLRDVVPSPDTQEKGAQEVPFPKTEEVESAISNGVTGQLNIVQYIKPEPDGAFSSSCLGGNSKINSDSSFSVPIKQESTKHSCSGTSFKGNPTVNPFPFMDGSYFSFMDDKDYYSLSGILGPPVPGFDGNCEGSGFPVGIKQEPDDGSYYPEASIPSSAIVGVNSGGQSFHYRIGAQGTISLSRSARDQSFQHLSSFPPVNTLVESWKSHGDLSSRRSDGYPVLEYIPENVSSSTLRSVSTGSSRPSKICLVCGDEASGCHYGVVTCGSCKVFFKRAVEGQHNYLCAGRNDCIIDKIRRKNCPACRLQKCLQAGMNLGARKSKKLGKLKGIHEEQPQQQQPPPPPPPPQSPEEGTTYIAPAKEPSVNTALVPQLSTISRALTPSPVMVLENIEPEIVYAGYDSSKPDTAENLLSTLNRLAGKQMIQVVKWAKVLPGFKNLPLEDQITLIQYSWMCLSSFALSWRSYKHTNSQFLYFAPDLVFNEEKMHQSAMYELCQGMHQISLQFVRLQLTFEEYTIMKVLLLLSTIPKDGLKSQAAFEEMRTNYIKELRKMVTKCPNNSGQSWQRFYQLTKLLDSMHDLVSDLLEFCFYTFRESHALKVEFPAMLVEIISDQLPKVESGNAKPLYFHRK
Nature of the assay: Inhibition of human MR.

The next assay has as its target T3, Progesterone receptor (Homo sapiens, UniProt P06401).
T3 sequence (P06401 whole entry): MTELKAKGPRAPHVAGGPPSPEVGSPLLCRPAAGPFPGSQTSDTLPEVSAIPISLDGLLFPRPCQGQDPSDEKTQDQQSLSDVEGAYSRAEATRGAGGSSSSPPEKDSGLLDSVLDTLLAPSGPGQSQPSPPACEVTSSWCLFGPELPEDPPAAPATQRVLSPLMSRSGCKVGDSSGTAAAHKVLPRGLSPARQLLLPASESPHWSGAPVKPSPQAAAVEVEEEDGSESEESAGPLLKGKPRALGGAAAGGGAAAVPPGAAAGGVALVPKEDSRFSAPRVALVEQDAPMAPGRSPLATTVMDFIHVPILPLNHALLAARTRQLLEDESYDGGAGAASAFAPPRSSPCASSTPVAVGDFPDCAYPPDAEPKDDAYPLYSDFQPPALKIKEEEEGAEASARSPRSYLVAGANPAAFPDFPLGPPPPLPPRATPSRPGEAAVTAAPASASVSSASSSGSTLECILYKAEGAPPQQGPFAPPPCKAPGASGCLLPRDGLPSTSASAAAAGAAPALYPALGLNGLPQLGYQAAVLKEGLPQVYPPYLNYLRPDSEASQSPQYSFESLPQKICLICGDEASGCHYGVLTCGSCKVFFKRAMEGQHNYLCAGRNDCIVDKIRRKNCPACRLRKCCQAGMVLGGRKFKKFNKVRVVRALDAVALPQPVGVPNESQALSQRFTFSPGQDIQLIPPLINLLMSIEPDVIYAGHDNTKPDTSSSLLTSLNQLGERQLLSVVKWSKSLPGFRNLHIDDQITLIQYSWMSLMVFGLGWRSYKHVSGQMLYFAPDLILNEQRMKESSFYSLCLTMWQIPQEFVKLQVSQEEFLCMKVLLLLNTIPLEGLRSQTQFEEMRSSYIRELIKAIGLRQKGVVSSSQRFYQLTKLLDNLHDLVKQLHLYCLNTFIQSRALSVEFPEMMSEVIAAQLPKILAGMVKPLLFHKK
Put plainly: Inhibition of human PR.

Another assay is filed under the species Homo sapiens. Put plainly: Selectivity for human glucocorticoid receptor over human mineralocorticoid receptor.

Broadly, the IC50 is the concentration needed to halve the response being measured. Low values mean greater potency in that assay, high ones weaker potency in that assay. Turning to `Cc1cc(C)c(S(=O)(=O)NC(C)Cc2cc3ccccc3[nH]2)c(C)c1` (configuration not stated), the IC50 against Glucocorticoid receptor was > 2 µM.
For `CC(Cc1c[nH]c2ccccc12)NS(=O)(=O)c1cc(Cl)ccc1Cl` (configuration not stated), on Glucocorticoid receptor, the IC50 worked out at 1.3 µM.
In turn, `CC(Cc1c[nH]c2ccccc12)NS(=O)(=O)c1ccc(Cl)c(Cl)c1` (configuration not stated) gave an IC50 on Glucocorticoid receptor of 6.9 µM.
Same read-out and setting: with `CC(Cc1c[nH]c2ccccc12)NS(=O)(=O)c1cc(Cl)cc(Cl)c1` (configuration not stated) the figure was 4.6 µM.
As for `CC(Cc1c[nH]c2ccccc12)NS(=O)(=O)c1ccc(C(C)(C)C)cc1` (configuration not stated), the IC50 was 1.07 µM in assay [1], 0.735 µM against Glucocorticoid receptor and > 2 µM against Progesterone receptor.
For `Cc1cc(S(=O)(=O)NC(C)Cc2c[nH]c3ccccc23)c(C)cc1Cl` (configuration not stated), the IC50 on Glucocorticoid receptor is 1.8 µM. This lies in the single-digit micromolar range.
For `CC(Cc1c[nH]c2ccccc12)NS(=O)(=O)c1c(Cl)cccc1Cl` (configuration not stated), in the assay listed under Homo sapiens, the Ratio IC50 was found to be 6. Besides, the IC50 in assay [1] turned out to be 1.6 µM; at Glucocorticoid receptor it was 0.24 µM; against Progesterone receptor, 0.17 µM.
Regarding `Cc1cc(C)c(C(=O)NC(C)Cc2c[nH]c3ccccc23)c(C)c1` (configuration not stated), the IC50 on Glucocorticoid receptor is > 2 µM.
On the same count and under the same terms, then `Cc1[nH]c2ccccc2c1CC(C)NS(=O)(=O)c1c(Cl)cc(Cl)cc1Cl` (configuration not stated), with 0.57 µM; and `CCC(Cc1c[nH]c2ccccc12)NS(=O)(=O)c1c(Cl)cc(Cl)cc1Cl` (configuration not stated), with 0.064 µM; and `CC(=O)Nc1ccc(S(=O)(=O)NC(C)Cc2c[nH]c3ccccc23)cc1` (configuration not stated), with > 10 µM.
Still for that read-out and setting: then `Cc1cc(C)c(S(=O)(=O)NCCc2c[nH]c3ccccc23)c(C)c1`, with > 2 µM; and `COC(=O)[C@@H](Cc1c[nH]c2ccccc12)NS(=O)(=O)c1c(C)cc(C)cc1C`, with > 2 µM.
Same read-out and setting: then `COc1ccc2[nH]cc(CC(C)NS(=O)(=O)c3c(Cl)cc(Cl)cc3Cl)c2c1` (configuration not stated), with > 2 µM; and `CC(Cc1c[nH]c2ccccc12)NC(=O)Nc1c(Cl)cc(Cl)cc1Cl` (configuration not stated), with > 2 µM; and `CC(Cc1c[nH]c2ccccc12)NS(=O)(=O)c1cccc(C#N)c1` (configuration not stated), with > 10 µM.
With `CC(Cc1c[nH]c2ccccc12)NS(=O)(=O)c1ccc(-c2ccccc2)cc1` (configuration not stated), the IC50 against Glucocorticoid receptor was determined as 2.6 µM.
`Cc1cc(C)c(S(=O)(=O)N[C@H](C)Cc2c[nH]c3ccccc23)c(C)c1`: the IC50 in assay [1] was 0.52 µM; on Glucocorticoid receptor it was > 2 µM; against Progesterone receptor it was > 2 µM.
Molecule `CC(Cc1c[nH]c2ccccc12)NS(=O)(=O)c1ccccc1Cl` (configuration not stated) registered a half-maximal inhibitory concentration (IC50) at Glucocorticoid receptor of 4.1 µM. This lies in the single-digit micromolar range.
The same measure, in the same setting: then `Cc1cc(C)c(S(=O)(=O)NC(C)Cc2c[nH]c3c(C)cccc23)c(C)c1` (configuration not stated), with 0.12 µM; and `Cc1cc(C)c(S(=O)(=O)NC(C)Cc2c[nH]c3cc(F)ccc23)c(C)c1` (configuration not stated), with 0.079 µM.
The same measure, in the same setting: then `Cc1cccc(Cl)c1S(=O)(=O)NC(C)Cc1c[nH]c2ccccc12` (configuration not stated), with 0.28 µM.
On the same count and under the same terms, then `Cc1c(Cl)cccc1S(=O)(=O)NC(C)Cc1c[nH]c2ccccc12` (configuration not stated), with 0.82 µM.
`CC(Cc1c[nH]c2ccccc12)NS(=O)(=O)c1ccc(Cl)cc1Cl` (configuration not stated): the IC50 was 0.85 µM in assay [1], 0.48 µM against Glucocorticoid receptor and > 2 µM against Progesterone receptor.
Take `CC(Cc1c[nH]c2ccccc12)NS(=O)(=O)c1ccc(Cl)cc1` (configuration not stated): the 50% inhibitory concentration (IC50) on Glucocorticoid receptor was 2.1 µM.
Still for that read-out and setting: then `COC(=O)[C@H](Cc1c[nH]c2ccccc12)NS(=O)(=O)c1c(C)cc(C)cc1C`, with > 2 µM.
On to `CC(Cc1c[nH]c2ccccc12)NS(=O)(=O)c1ccc(C(C)C)cc1` (configuration not stated), for which the values for the IC50 (in assay [1]; at Glucocorticoid receptor; on Progesterone receptor) were 1.4 µM, 0.75 µM and 1 µM, respectively.
For `CC(Cc1c[nH]c2ccccc12)NS(=O)(=O)c1ccccc1` (configuration not stated), the IC50 against Glucocorticoid receptor is > 10 µM.
Regarding `CC(Cc1cn(C)c2ccccc12)NS(=O)(=O)c1c(Cl)cc(Cl)cc1Cl` (configuration not stated), the IC50 against Glucocorticoid receptor was > 2 µM.
The same measure, in the same setting: with `COc1ccc(S(=O)(=O)NC(C)Cc2c[nH]c3ccccc23)cc1` (configuration not stated) the figure was > 10 µM; with `Cc1cc(C)c(S(=O)(=O)NC(C)Cc2c[nH]c3cc(C)ccc23)c(C)c1` (configuration not stated), 0.49 µM; with `Cc1ccc(S(=O)(=O)NC(C)Cc2c[nH]c3ccccc23)cc1` (configuration not stated), 5.7 µM.
Same read-out and setting: then `CC(Cc1c[nH]c2ccccc12)NS(=O)(=O)c1ccc([N+](=O)[O-])cc1` (configuration not stated), with > 10 µM.
`C[C@@H]1C[C@H]2[C@@H]3CCC4=CC(=O)C=C[C@]4(C)[C@@]3(F)[C@@H](O)C[C@]2(C)[C@@]1(O)C(=O)CO` [DEXAMETHASONE]: the IC50 on Progesterone receptor is > 2 µM.
`CC(Cc1c[nH]c2ccccc12)NS(=O)(=O)c1cccc(Cl)c1Cl` (configuration not stated) yielded an IC50 against Glucocorticoid receptor of 1.2 µM.
Take `Cc1cc(C)c(S(=O)(=O)N[C@@H](C)Cc2c[nH]c3ccccc23)c(C)c1`: the Ratio IC50 in the assay filed under Homo sapiens turned out to be 34. In addition, the IC50 in assay [1] is 1 µM; on Glucocorticoid receptor it was 0.029 µM; against Progesterone receptor it was 1.2 µM.
Turning to `Cc1cccc(S(=O)(=O)NC(C)Cc2c[nH]c3ccccc23)c1` (configuration not stated), the IC50 at Glucocorticoid receptor was > 10 µM.
Same read-out and setting: with `CC(Cc1c[nH]c2ccccc12)NS(=O)(=O)c1ccc(Cl)c(Cl)c1Cl` (configuration not stated) the figure was 1.9 µM.
As for `CC(Cc1c[nH]c2ccccc12)NS(=O)(=O)c1cccc(Cl)c1` (configuration not stated), at Glucocorticoid receptor, the IC50 stood at 4.1 µM.
`Cc1cc(C)c(S(=O)(=O)N(C)C(C)Cc2c[nH]c3ccccc23)c(C)c1` (configuration not stated) registered an IC50 against Glucocorticoid receptor of 1.3 µM.
On to `CC(Cc1c[nH]c2ccccc12)NS(=O)(=O)c1cc(Cl)cc(Cl)c1O` (configuration not stated), for which, at Glucocorticoid receptor, the IC50 is > 10 µM.
For `Cc1cc(C)c(CNC(C)Cc2c[nH]c3ccccc23)c(C)c1` (configuration not stated), the IC50 on Glucocorticoid receptor is > 2 µM.
Still for that read-out and setting: then `Cc1cc(C)c(S(=O)(=O)NC(C)Cc2c[nH]c3ccc(F)cc23)c(C)c1` (configuration not stated), with 0.065 µM.
With `CC(Cc1c[nH]c2ccccc12)NS(=O)(=O)c1cc(Cl)c(Cl)cc1Cl` (configuration not stated), the IC50 in assay [1] is 1 µM; against Glucocorticoid receptor it was 0.99 µM; against Progesterone receptor, 0.44 µM.
`CC(Cc1c[nH]c2ccccc12)NS(=O)(=O)c1ccccc1[N+](=O)[O-]` (configuration not stated): the IC50 on Glucocorticoid receptor is > 10 µM.
`CC(Cc1c[nH]c2ccccc12)NS(=O)(=O)c1c(C(C)C)cc(C(C)C)cc1C(C)C` (configuration not stated): the figures for the IC50 (in assay [1]; at Glucocorticoid receptor; at Progesterone receptor) were > 2 µM, 0.067 µM and > 2 µM, respectively.
For `Cc1cc(C)c(S(=O)(=O)NC(CO)Cc2c[nH]c3ccccc23)c(C)c1` (configuration not stated), the IC50 at Glucocorticoid receptor was > 2 µM.
Still for that read-out and setting: with `CC(Cc1c[nH]c2ccccc12)NS(=O)(=O)c1cc(F)c(Br)cc1F` (configuration not stated) the figure was 3.6 µM.
On the same count and under the same terms, then `CCCc1ccc(S(=O)(=O)NC(C)Cc2c[nH]c3ccccc23)cc1` (configuration not stated), with 1.6 µM.
